The values below come from the NIST ThermoML archive (doi:10.1021/acs.jced.6b00513).

± gives the expanded uncertainty stated by the source.

The conditions of one series: 298.2 K; 101.3 kPa; Liquid; Buoyancy - hydrostatic balance.
As usually defined, the mass density is mass per unit of volume. As for `CCCCOC(C)=O` [butyl ethanoate], the mass density came to 882.2 ± 6 kg/m3. As to `Cc1cccc(O)c1` [3-methylphenol], the mass density is recorded as 1034.5 ± 6 kg/m3. For `O` [water], the mass density turned out to be 997.2 ± 6 kg/m3. Consider `CC(=O)CC(C)C` [4-methylpentan-2-one], for which the mass density came to 799.8 ± 6 kg/m3. Turning to `CO` [methanol], the mass density was 791 ± 6 kg/m3.

Turning to `Cc1cc(C)cc(C)c1` [1,3,5-trimethylbenzene], the mass density was 864 ± 6 kg/m3.

Staying with this series, now noted: 298.2 K; 101.3 kPa; Metastable liquid; Buoyancy - hydrostatic balance.
`Cc1ccc(O)cc1` [4-methylphenol]: the mass density turned out to be 1034.4 ± 6 kg/m3.
